The supplement of paper PMC8882468

Columns and labels:
Assay in all cases: CTG-3D luminescence at 96 h relative to day-0 seeding control (ratio to day 0); higher = more growth / less cytotoxicity; PDxO 3D drug screen, 96 h, CTG-3D normalised to day-0 seeding control.
HCI-024 = tested on: HCI-024 (organoid from a breast cancer xenograft)
HCI-017.E2 = tested on: HCI-017.E2 (organoid from an ER-positive breast cancer xenograft)
HCI-001 = tested on: HCI-001 (organoid from a triple-negative breast cancer xenograft)
HCI-012 = tested on: HCI-012 (organoid from a breast cancer xenograft)
HCI-005.E2 = tested on: HCI-005.E2 (organoid from a breast cancer xenograft with a HER2-positive history)
HCI-003.E2 = tested on: HCI-003.E2 (organoid from an ER-positive breast cancer xenograft)

CNC(=O)c1cccc(-c2ccc3c(N4CCOC[C@@H]4C)nc(N4CCOC[C@@H]4C)nc3n2)c1 [vistusertib]
CTG-3D luminescence at 96 h
Conditions | 12.5 pM | 0.00025 µM | 0.005 µM | 0.1 µM | 1 µM | 10 µM | 100 µM | 625 fM
HCI-001, days in culture: 240 | 1.6 | 1.12 | 0.733 | 0.68 | 0.589 | 0.404 | 0.27 | 1.82
HCI-001, days in culture: 260 | 2.82 | 1.1 | 1.62 | 1.31 | 0.501 | 0.89 | 0.406 | 1.23
HCI-001, days in culture: 269 | 1.63 | 1.62 | 1.55 | 1.03 | 0.524 | 0.533 | 0.378 | 1.6
HCI-001, days in culture: 327 | 1.63 | 1.59 | 1.68 | 1.5 | 1.09 | 0.485 | 0.721 | 1.93
HCI-001, days in culture: 346 | 1.29 | 1.31 | 1.14 | 0.926 | 0.641 | 0.549 | 0.566 | 1.28
HCI-001, days in culture: 364 | 1.51 | 1.3 | 1.38 | 0.795 | 0.495 | 0.606 | 0.601 | 1.78
HCI-012, days in culture: 143 | 2.08 | 2.14 | 2.4 | 1.9 | 1.14 | 0.875 | 0.292 | 1.87
HCI-012, days in culture: 162 | 2.68 | 2.6 | 1.94 | 2.8 | 1.21 | 1.06 | 0.318 | 3.34
HCI-012, days in culture: 201 | 2.73 | 1.99 | 1.53 | 1.7 | 1.42 | 0.57 | 0.745 | 1.48
HCI-017.E2, days in culture: 85 | 3.03 | 2.04 | 2.83 | 1.99 | 0.732 | 0.76 | 0.421 | 2.95
HCI-024, days in culture: 105 | 1.75 | 1.79 | 1.36 | 1.28 | 0.65 | 0.778 | 0.554 | 1.79
HCI-024, days in culture: 122 | 2.25 | 2.36 | 2.05 | 1.84 | 0.987 | 1.07 | 0.813 | 2.77
HCI-024, days in culture: 163 | 1.9 | 2.22 | 1.73 | 2.31 | 1.19 | 0.949 | 0.662 | 1.95

CTG-3D luminescence at 96 h
Conditions | 12.5 pM | 0.00025 µM | 0.005 µM | 0.1 µM | 1 µM | 10 µM | 100 µM | 625 fM
HCI-003.E2 | 2.24 | 2.07 | 2.3 | 1.4 | 0.0994 | 0.0512 | 0.0137 | 2.1
HCI-005.E2 | 1.89 | 2.02 | 2.14 | 2.05 | 0.528 | 0.53 | 0.57 | 1.98
HCI-017.E2 | 1.6 | 2.166 | 1.94 | 1.38 | 0.698 | 0.585 | 0.418 | 2.18

CC[C@H](NC(=O)[C@H](C)NC)C(=O)N1C[C@@H](O)C[C@H]1Cc1c(-c2[nH]c3cc(F)ccc3c2C[C@@H]2C[C@H](O)CN2C(=O)[C@H](CC)NC(=O)[C@H](C)NC)[nH]c2cc(F)ccc12 [birinapant]
CTG-3D luminescence at 96 h
Conditions | 12.5 pM | 0.00025 µM | 0.005 µM | 0.1 µM | 1 µM | 10 µM | 100 µM | 625 fM
HCI-001, days in culture: 240 | 1.73 | 1.11 | 0.766 | 1.19 | 1.35 | 0.911 | 0.0991 | 1.19
HCI-001, days in culture: 260 | 2.4 | 0.757 | 1.95 | 1.48 | 1.34 | 1.44 | 0.312 | 1.51
HCI-001, days in culture: 269 | 1.5 | 1.67 | 1.54 | 1.87 | 1.68 | 2.3 | -0.0177 | 1.65
HCI-001, days in culture: 327 | 1.48 | 1.44 | 1.63 | 1.67 | 1.34 | 1.26 | 0.695 | 1.57
HCI-001, days in culture: 346 | 1.48 | 1.48 | 1.12 | 1.08 | 1.35 | 1.42 | 1.37 | 1.14
HCI-001, days in culture: 364 | 1.38 | 1.05 | 1.4 | 1.27 | 1.07 | 1.32 | 1.04 | 1.5
HCI-012, days in culture: 143 | 1.9 | 1.6 | 0.979 | 1.05 | 0.841 | 1.03 | 0.0063 | 1.91
HCI-012, days in culture: 162 | 2.25 | 2.01 | 0.325 | 0.156 | 0.152 | 0.249 | 0.00568 | 2.83
HCI-012, days in culture: 201 | 2.65 | 2.24 | 1.46 | 0.262 | 0.102 | 0.277 | 0.0538 | 1.77
HCI-017.E2, days in culture: 85 | 3.2 | 2.88 | 2.45 | 2.38 | 2.5 | 1.82 | 1.64 | 2.6
HCI-024, days in culture: 105 | 1.4 | 1.17 | 0.375 | 0.175 | 0.139 | 0.177 | 0.0272 | 1.84
HCI-024, days in culture: 122 | 1.7 | 1.71 | 0.726 | 0.194 | 0.134 | 0.237 | 0.0303 | 2.58
HCI-024, days in culture: 163 | 1.8 | 1.36 | 0.525 | 0.315 | 0.255 | 0.23 | 0.0734 | 2.09

CTG-3D luminescence at 96 h
Conditions | 12.5 pM | 0.00025 µM | 0.005 µM | 0.1 µM | 1 µM | 10 µM | 100 µM | 625 fM
HCI-003.E2 | 2.21 | 2.35 | 2.12 | 2.07 | 1.98 | 2.07 | 1.08 | 2.08
HCI-005.E2 | 1.74 | 1.66 | 1.74 | 1.77 | 1.79 | 1.51 | 1.29 | 1.76
HCI-017.E2 | 1.76 | 2.26 | 2.2 | 2.01 | 2.21 | 2.12 | 1.51 | 2.35

O=C(/C=C/c1cccnc1)NCCCCC1CCN(C(=O)c2ccccc2)CC1 [FK866]
CTG-3D luminescence at 96 h
Conditions | 12.5 pM | 0.00025 µM | 0.005 µM | 0.1 µM | 1 µM | 10 µM | 100 µM | 625 fM
HCI-001, days in culture: 240 | 1.51 | 1.26 | 0.813 | 0.167 | 0.113 | 0.0983 | 0.134 | 1.79
HCI-001, days in culture: 260 | 2.05 | 0.894 | 0.497 | 0.126 | 0.107 | 0.113 | 0.125 | 1.44
HCI-001, days in culture: 269 | 1.52 | 1.61 | 1.1 | 0.0874 | 0.0522 | 0.0578 | 0.0645 | 1.6
HCI-001, days in culture: 327 | 1.45 | 0.495 | 0.617 | 0.125 | 0.0812 | 0.0548 | 0.0869 | 1.78
HCI-001, days in culture: 346 | 1.25 | 1.28 | 0.416 | 0.063 | 0.0715 | 0.0541 | 0.128 | 1.08
HCI-001, days in culture: 364 | 1.18 | 1.03 | 0.913 | 0.0658 | 0.0511 | 0.0476 | 0.0948 | 1.5
HCI-012, days in culture: 143 | 1.77 | 2.17 | 0.328 | 0.0872 | 0.0769 | 0.0863 | 0.175 | 1.84
HCI-012, days in culture: 162 | 2.18 | 2.1 | 0.129 | 0.0723 | 0.0448 | 0.085 | 0.127 | 2.72
HCI-012, days in culture: 201 | 2.67 | 0.11 | 0.33 | 0.0389 | 0.128 | 0.0435 | 0.115 | 1.67
HCI-017.E2, days in culture: 85 | 2.98 | 3.2 | 2.28 | 0.984 | 0.928 | 0.889 | 0.391 | 2.15
HCI-024, days in culture: 105 | 1.87 | 1.72 | 0.265 | 0.2 | 0.157 | 0.205 | 0.272 | 2.1
HCI-024, days in culture: 122 | 2.43 | 2.32 | 0.648 | 0.179 | 0.209 | 0.222 | 0.172 | 2.91
HCI-024, days in culture: 163 | 1.91 | 2.21 | 0.305 | 0.221 | 0.181 | 0.166 | 0.306 | 1.89

CTG-3D luminescence at 96 h
Conditions | 12.5 pM | 0.00025 µM | 0.005 µM | 0.1 µM | 1 µM | 10 µM | 100 µM | 625 fM
HCI-003.E2 | 2.05 | 2.19 | 0.395 | 0.38 | 0.268 | 0.302 | 0.113 | 1.51
HCI-005.E2 | 1.39 | 1.97 | 1.39 | 0.142 | 0.135 | 0.267 | 0.166 | 1.93
HCI-017.E2 | 1.61 | 1.98 | 0.93 | 0.759 | 0.847 | 0.866 | 0.328 | 1.39
